# Reference: patent US11266715B2, “C3A receptor agonists for use against ischemic brain injury, stroke, traumatic brain injury, spinal cord injury and neurodegenerative disorders” (priority 2016, dated 2022)
# System: mice subjected to neonatal HI injury
# Experiment: Cue-induced fear conditioning after neonatal HI injury, 7 days intranasal treatment
# Type: in vivo, mouse
# Description: In the long-term study (7 days of intranasal treatment), […] of wild-type (WT) and C3aR^−/− mice subjected to neonatal HI injury and treated with either C3a or PBS were used; WT HI-C3a (n=5), WT HI-PBS (n=8), C3aR^−/− HI-C3a (n=7), C3aR^−/− HI-PBS (n=8). These mice were tested in a cue-induced fear conditioning test at P50 and brains were collected at P51 (FIG. 7A).
# Neonatal HI injury was induced on postnatal day 9 (P9), as previously described with modifications for mice (Hedtjärn et al., 2002; Rice et al., 1981; Sheldon et al., 1998). Mice were anesthetized with 3.5% isoflurane (Baxter Medical, Kista, Sweden) for induction and 1.5% thereafter, in 1:1 oxygen and nitrous oxide. The left common carotid artery was dissected and permanently ligated with a prolene suture (6.0). […]
# Cue-induced fear conditioning with a shock-paired tone and light cue was performed on P49 and P50 as previously described (Järlestedt et al., 2011). […] Freezing behaviour, a defensive response to a perceived threat, was defined as a complete lack of movement and quantified by scoring freezing behaviour (on video footage) as present or absent once every 10 s for 2 min. […] On P50, animals were again placed in the conditioning box and freezing behaviour was measured for 2 min. Following this, the shock-paired tone and light were presented for 30 s and freezing behaviour was then measured again for 2 min. […]
substance,measurement,setting,value
"C3a: Purified human C3a peptide (Complement Technologies), C3a receptor agonist, amino acid sequence SEQ ID NO: 1","extent of freezing, C3a vs PBS","C3aR−/− mice, same protocol",did not differ
same,freezing behavior after the conditioned cue vs HI PBS-treated mice,"WT mice, intranasal C3a once daily 7 days from 1 h after HI, p<0.05",significantly increased freezing behavior
